Legend:
[1] = acceleration test (stability); type: physicochemical; details: 40° C.±2° C., relative humidity 75%±5%
Procedure: (§1) Stability tests were performed on the samples of Examples 1, 2, 3, 4 and 5. […] Please refer to the results of the acceleration test (40° C.±2° C., relative humidity 75%±5%) of Table 1 and the results of the long-term stability test (25° C.±2° C., relative humidity 60%±10%) of Table 2.

[2] = long-term stability test; type: physicochemical; details: 25° C.±2° C., relative humidity 60%±10%
Procedure: as §1

(S)-2-(4-fluorophenyl)-4-(piperidine-3-aminomethyl)thieno[2,3-d]pyridazine-7-carboxamide hydrochloride [Example 110601-2]
98.7%: content(%) ([1]; 0 month, hydrochloride) | Content (calculated by dried product )(%) ([2]; 0 month, hydrochloride)
0.43%: Total relevant substances (%) ([2]; 36 months, hydrochloride)
0.26%: ImpurityA(%) ([2]; 12 months, hydrochloride)
100.7%: Content (calculated by dried product )(%) ([2]; 18 months, hydrochloride)
yellow crystalline powder: appearance ([1]; 0 month) | appearance ([1]; 1 month) | appearance ([1]; 2 months) | appearance ([1]; 3 months) | appearance ([1]; 6 months)
0.08%: Enantiomers (%) ([2]; 9 months, hydrochloride) | Enantiomers (%) ([2]; 24 months)
0.44%: Total relevant substances (%) ([1]; 2 months, hydrochloride)
0.34%: Total relevant substances (%) ([1]; 3 months, hydrochloride) | Total relevant substances (%) ([2]; 6 months, hydrochloride)
yellow crystalline: appearance ([2]; 0 month, hydrochloride) | appearance ([2]; 3 months, hydrochloride) | appearance ([2]; 6 months, hydrochloride) | appearance ([2]; 9 months, hydrochloride) | appearance ([2]; 12 months, hydrochloride) | appearance ([2]; 18 months, hydrochloride) | appearance ([2]; 24 months, hydrochloride) | appearance ([2]; 36 months, hydrochloride)
0.36%: Total relevant substances (%) ([2]; 12 months, hydrochloride) | Total relevant substances (%) ([2]; 18 months, hydrochloride)
7.2%: Loss on drying (%) ([1]; 2 months, hydrochloride) | Loss on drying (%) ([1]; 6 months, hydrochloride) | Loss on drying (%) ([2]; 6 months, hydrochloride) | Loss on drying (%) ([2]; 18 months, hydrochloride) | Loss on drying (%) ([2]; 24 months, hydrochloride) | Loss on drying (%) ([2]; 36 months, hydrochloride)
0.1%: Enantiomer (%) ([1]; 2 months, hydrochloride)
0.09%: Enantiomer (%) ([1]; 0 month, hydrochloride) | Enantiomer (%) ([1]; 3 months, hydrochloride) | Enantiomers (%) ([2]; 0 month, hydrochloride) | Enantiomers (%) ([2]; 3 months, hydrochloride)
0.32%: Impurity A (%) ([1]; 0 month, hydrochloride) | ImpurityA(%) ([2]; 0 month, hydrochloride)
0.38%: Total relevant substances (%) ([2]; 9 months, hydrochloride)
0.00%: (%) Impurity B (%) ([1]; 0 month) | (%) Impurity B (%) ([1]; 3 months) | (%) Impurity B (%) ([1]; 6 months) | ImpurityB(%) ([2]; 0 month) | ImpurityB(%) ([2]; 3 months) | ImpurityB(%) ([2]; 6 months) | ImpurityB(%) ([2]; 18 months) | ImpurityB(%) ([2]; 24 months)
99.9%: content(%) ([1]; 3 months, hydrochloride)
0.37%: Total relevant substances (%) ([2]; 24 months, hydrochloride)
99.6%: Content (calculated by dried product )(%) ([2]; 9 months, hydrochloride)
99.5%: content(%) ([1]; 1 month, hydrochloride) | Content (calculated by dried product )(%) ([2]; 36 months, hydrochloride)
7.4%: Loss on drying (%) ([2]; 12 months, hydrochloride)
0.42%: Total relevant substances (%) ([1]; 0 month, hydrochloride) | Total relevant substances (%) ([1]; 1 month, hydrochloride) | Total relevant substances (%) ([2]; 0 month, hydrochloride)
99.1%: content(%) ([1]; 2 months, hydrochloride) | Content (calculated by dried product )(%) ([2]; 24 months, hydrochloride)
0.02%: Impurity C (%) ([1]; 0 month, hydrochloride) | Single largest impurity (%) ([1]; 0 month, hydrochloride) | Impurity C (%) ([1]; 1 month) | Single largest impurity (%) ([1]; 2 months, hydrochloride) | Impurity C (%) ([1]; 3 months) | Single largest impurity (%) ([1]; 3 months, hydrochloride) | Impurity C (%) ([1]; 6 months) | Single largest impurity (%) ([1]; 6 months, hydrochloride) | ImpurityC(%) ([2]; 0 month, hydrochloride) | Single largest impurity (%) ([2]; 0 month, hydrochloride) | ImpurityC(%) ([2]; 3 months) | ImpurityC(%) ([2]; 6 months, hydrochloride) | Single largest impurity (%) ([2]; 6 months, hydrochloride) | ImpurityC(%) ([2]; 9 months) | ImpurityB(%) ([2]; 9 months, hydrochloride) | Single largest impurity (%) ([2]; 9 months, hydrochloride) | Single largest impurity (%) ([2]; 12 months) | Single largest impurity (%) ([2]; 18 months) | ImpurityC(%) ([2]; 18 months, hydrochloride) | ImpurityC(%) ([2]; 24 months) | Single largest impurity (%) ([2]; 24 months) | ImpurityC(%) ([2]; 36 months) | Single largest impurity (%) ([2]; 36 months) | ImpurityB(%) ([2]; 36 months, hydrochloride)
0.12%: Enantiomer (%) ([1]; 1 month, hydrochloride)
0.04%: (%) Impurity B (%) ([1]; 2 months, hydrochloride)
0.01%: ImpurityB(%) ([2]; 12 months)
0.28%: Impurity A (%) ([1]; 1 month, hydrochloride)
0.33%: Total relevant substances (%) ([1]; 6 months, hydrochloride)
0.27%: ImpurityA(%) ([2]; 9 months, hydrochloride)
0.31%: Impurity A (%) ([1]; 2 months, hydrochloride) | ImpurityA(%) ([2]; 36 months, hydrochloride)
7.3%: Loss on drying (%) ([1]; 0 month, hydrochloride) | Loss on drying (%) ([1]; 1 month, hydrochloride) | Loss on drying (%) ([1]; 3 months, hydrochloride) | Loss on drying (%) ([2]; 0 month, hydrochloride) | Loss on drying (%) ([2]; 3 months, hydrochloride) | Loss on drying (%) ([2]; 9 months, hydrochloride)
0.25%: Impurity A (%) ([1]; 3 months, hydrochloride) | Impurity A (%) ([1]; 6 months, hydrochloride) | ImpurityA(%) ([2]; 6 months, hydrochloride)
99.7%: Content (calculated by dried product )(%) ([2]; 6 months, hydrochloride) | Content (calculated by dried product )(%) ([2]; 12 months, hydrochloride)
99.8%: Content (calculated by dried product )(%) ([2]; 3 months, hydrochloride)
0.39%: Total relevant substances (%) ([2]; 3 months, hydrochloride)
0.30%: ImpurityA(%) ([2]; 3 months, hydrochloride) | ImpurityA(%) ([2]; 18 months, hydrochloride) | ImpurityA(%) ([2]; 24 months, hydrochloride)
unchanged: Crystal form ([1]; 0 month) | Crystal form ([1]; 1 month) | Crystal form ([1]; 2 months) | Crystal form ([1]; 3 months) | Crystal form ([1]; 6 months) | Crystal form ([2]; 0 month) | Crystal form ([2]; 3 months) | Crystal form ([2]; 6 months) | Crystal form ([2]; 9 months) | Crystal form ([2]; 12 months) | Crystal form ([2]; 18 months) | Crystal form ([2]; 24 months) | Crystal form ([2]; 36 months)
0.03%: (%) Impurity B (%) ([1]; 1 month, hydrochloride) | Single largest impurity (%) ([1]; 1 month, hydrochloride) | Impurity C (%) ([1]; 2 months, hydrochloride) | Single largest impurity (%) ([2]; 3 months, hydrochloride) | ImpurityC(%) ([2]; 12 months, hydrochloride)
0.07%: Enantiomer (%) ([1]; 6 months, hydrochloride) | Enantiomers (%) ([2]; 6 months, hydrochloride) | Enantiomers (%) ([2]; 12 months, hydrochloride) | Enantiomers (%) ([2]; 18 months, hydrochloride)
100.1%: content(%) ([1]; 6 months, hydrochloride)
0.06%: Enantiomers (%) ([2]; 36 months, hydrochloride)

— patent publication US20230183259A1, “Crystal Form Of Thiofuran Pyridazine Compound, Preparation Method Therefor And Application Thereof” (ZHEJIANG MEDICINE CO., LTD. XINCHANG PHARMACEUTICAL FACTORY, priority 2020, published 2023)
